In assay [1] the target is T1, Tyrosine-protein phosphatase non-receptor type 1 (Homo sapiens, UniProt P18031).
T1 sequence (P18031 whole entry): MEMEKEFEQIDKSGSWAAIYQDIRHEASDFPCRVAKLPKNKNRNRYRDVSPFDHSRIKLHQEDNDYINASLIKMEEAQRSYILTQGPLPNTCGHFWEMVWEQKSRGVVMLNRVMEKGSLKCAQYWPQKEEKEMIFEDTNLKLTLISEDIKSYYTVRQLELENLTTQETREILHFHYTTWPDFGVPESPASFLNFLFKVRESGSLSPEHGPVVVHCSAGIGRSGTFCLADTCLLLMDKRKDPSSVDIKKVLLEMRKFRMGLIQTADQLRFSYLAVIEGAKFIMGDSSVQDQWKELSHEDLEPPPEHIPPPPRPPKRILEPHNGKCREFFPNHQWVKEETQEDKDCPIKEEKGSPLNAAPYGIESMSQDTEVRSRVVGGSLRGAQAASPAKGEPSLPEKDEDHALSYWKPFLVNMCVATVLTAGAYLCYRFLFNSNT
Put plainly: Dissociation constant against Protein-tyrosine phosphatase 1B receptor was determined.

Assay [2] addresses T1, Tyrosine-protein phosphatase non-receptor type 1.
Description: Binding affinity against protein tyrosine phosphatase PTB1B
The target in assay [3] is Tyrosine-protein phosphatase non-receptor type 2 (Homo sapiens, UniProt P17706). As to the kind of experiment: Inhibitory constant of compound against T cell protein tyrosine phosphatase was determined. The format is cell-based.
Chain of Tyrosine-protein phosphatase non-receptor type 2 (P17706 whole entry, looked up): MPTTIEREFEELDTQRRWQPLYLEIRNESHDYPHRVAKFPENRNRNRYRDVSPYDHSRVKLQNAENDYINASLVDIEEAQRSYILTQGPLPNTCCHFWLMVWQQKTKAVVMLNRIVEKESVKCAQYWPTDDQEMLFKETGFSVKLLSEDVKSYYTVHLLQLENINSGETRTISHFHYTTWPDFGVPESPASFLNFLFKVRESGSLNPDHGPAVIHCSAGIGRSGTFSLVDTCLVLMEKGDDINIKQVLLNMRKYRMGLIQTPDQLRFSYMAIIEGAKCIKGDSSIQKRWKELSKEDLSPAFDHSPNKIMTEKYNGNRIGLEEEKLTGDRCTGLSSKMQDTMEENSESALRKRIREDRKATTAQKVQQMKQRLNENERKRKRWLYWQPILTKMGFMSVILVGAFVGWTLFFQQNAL

As usually defined, the Kd is a measure of binding affinity in units of concentration. Read a high Kd as a looser complex. For orientation: Ki means a dissociation constant, usually derived from enzyme kinetics or from competition with a known ligand. Low readings indicate a stronger hold on the target, high ones a looser hold on the target.

In turn, `O=C(O)c1cc(-c2ccc(Br)cc2)on1` showed a Kd in assay [1] of 800 µM. As to `CCCC(=O)Nc1cccc(-c2cc(C(=O)O)no2)c1`, the results for the inhibition constant Ki in assay [2] and in assay [3] were 148 µM and 634 µM, respectively.

For the origin of these results see ChEMBL document CHEMBL1145108, “Fragment screening and assembly: a highly efficient approach to a selective and cell active protein tyrosine phosphatase 1B inhibitor” (J Med Chem, 2003).
